In US10941157B2, “Pesticidal compositions and uses thereof” (Gilead Apollo, LLC, priority 2015, dated 2021):
Converted amounts (≈) assume the structure as drawn. Where two headings read alike, the source gives them in different places.

What was measured:
Type in all cases: cell-based
Septoria tritici (St) = experiment: In vitro pathogen growth inhibition assay, St; conditions: Zymoseptoria tritici, 48 h
Description: (§1) A growth inhibition assay was conducted to determine the ability of compounds to control the growth of fungal pathogens, such as Botrtyis cinerea (Bc), Collectotrichum graminicola (Cg), Diplodia maydis (Dm), Fusarium moniliforme (Fm), Fusarium virguliforme (Fv), Phytophthora capsici (Pc), Rhizoctonia solani (Rs), and Septoria tritici (St). The compounds listed in Table 1 were each dissolved in DMSO at 2.5 mg/ml to produce compound stock solutions (“stocks”). […] Negative controls on each plate included 2% DMSO, water, and a blank (media+2% DMSO). Fungal spores were isolated from previously sub-cultured plates of Botrtyis cinerea (Bc), Collectotrichum graminicola (Cg), Diplodia maydis (Dm), Fusarium moniliforme (Fm), Fusarium virguliforme (Fv), Phytophthora capsici (Pc), and Septoria tritici (St). The isolated spores were diluted to individual concentrations with a 17% V8 liquid media. For Rhizoctonia solani (Rs), 1.5 mm mycelial plugs were used in place of spores and ¼ Potato Dextrose Broth (PDB) was used for dilution. The spore concentrations and plug sizes were based on growth curves generated at 48 hours for each pathogen. In a second 96-well plate, the spores or mycelial plugs, media, diluted compound solutions, and controls were combined. Once the compound was added, a true final concentration of compound in each well was measured by an OD600 reading, which adjusted for any compound precipitation that might have occurred in the well. Plate readings were repeated at both 24 and 48 hours. The blank negative control was used as a background subtraction. Additional visual ratings were performed at both 24 and 48 hours for checking on precipitation and confirming efficacy. […] Both tables list the concentration of each compound that was sufficient to ≥90% inhibition of growth for each of the fungal pathogens listed above. In addition, some of compounds were tested in a yeast growth inhibition assay for Saccharomyces cerevisiae (Sc). Table 2 lists the concentration of the tested compound that was sufficient to ≥75% inhibition of Saccharomyces cerevisiae (Sc).

Diplodia maydis (Dm) = experiment: In vitro pathogen growth inhibition assay, Dm; conditions: Stenocarpella maydis, 48 h
Description: as §1

[1] = test system: Fusarium virguliforme (Fv); experiment: In vitro pathogen growth inhibition assay, Fv
Description: as §1

[2] = test system: Fusarium moniliforme (Fm); experiment: In vitro pathogen growth inhibition assay, Fm; conditions: Fusarium verticillioides
Description: as §1

[3] = test system: Phytophthora capsici (Pc); experiment: In vitro pathogen growth inhibition assay, Pc; conditions: 48 h
Description: as §1

[4] = test system: Collectotrichum graminicola (Cg); experiment: In vitro pathogen growth inhibition assay, Cg; conditions: 48 h
Description: as §1

Botrtyis cinerea (Bc) = experiment: In vitro pathogen growth inhibition assay, Bc; conditions: 48 h
Description: as §1

Rhizoctonia solani (Rs) = experiment: In vitro pathogen growth inhibition assay, Rs (mycelial plugs); conditions: Rhizoctonia solani, 48 h, mycelial plugs
Description: as §1

[5] = ≥90% growth inhibition, 48 hours, vs 2% DMSO control, read-out: Compound Concentration (ppm) sufficient for ≥90% inhibition of St
[6] = ≥90% growth inhibition, 48 hours, vs 2% DMSO control, read-out: Compound Concentration (ppm) sufficient for ≥90% inhibition of Dm
[7] = ≥90% growth inhibition, 48 hours, vs 2% DMSO control, read-out: Compound Concentration (ppm) sufficient for ≥90% inhibition of Fv
[8] = ≥90% growth inhibition, 48 hours, vs 2% DMSO control, read-out: Compound Concentration (ppm) sufficient for ≥90% inhibition of Fm
[9] = ≥90% growth inhibition, 48 hours, vs 2% DMSO control, read-out: Compound Concentration (ppm) sufficient for ≥90% inhibition of Pc
[10] = ≥90% growth inhibition, 48 hours, vs 2% DMSO control, read-out: Compound Concentration (ppm) sufficient for ≥90% inhibition of Cg
[11] = ≥90% growth inhibition, 48 hours, vs 2% DMSO control, read-out: Compound Concentration (ppm) sufficient for ≥90% inhibition of Bc
[12] = ≥90% growth inhibition, 48 hours, vs 2% DMSO control, read-out: Compound Concentration (ppm) sufficient for ≥90% inhibition of Rs
[13] = ≥90% inhibition, 48 hours vs 2% DMSO control, read-out: Compound Concentration (ppm) sufficient for ≥90% inhibition of growth, St
[14] = ≥90% inhibition, 48 hours vs 2% DMSO control, read-out: Compound Concentration (ppm) sufficient for ≥90% inhibition of growth, Dm
[15] = ≥90% inhibition, 48 hours vs 2% DMSO control, read-out: Compound Concentration (ppm) sufficient for ≥90% inhibition of growth, Fv
[16] = ≥90% inhibition, 48 hours vs 2% DMSO control, read-out: Compound Concentration (ppm) sufficient for ≥90% inhibition of growth, Fm
[17] = ≥90% inhibition, 48 hours vs 2% DMSO control, read-out: Compound Concentration (ppm) sufficient for ≥90% inhibition of growth, Pc
[18] = ≥90% inhibition, 48 hours vs 2% DMSO control, read-out: Compound Concentration (ppm) sufficient for ≥90% inhibition of growth, Cg
[19] = ≥90% inhibition, 48 hours vs 2% DMSO control, read-out: Compound Concentration (ppm) sufficient for ≥90% inhibition of growth, Bc
[20] = ≥90% inhibition, 48 hours vs 2% DMSO control, read-out: Compound Concentration (ppm) sufficient for ≥90% inhibition of growth, Rs

IC90 (Septoria tritici (St); [5]) | IC90 (Diplodia maydis (Dm); [6]) | IC90 [1, 7] | IC90 [2, 8] | IC90 [3, 9] | IC90 [4, 10] | IC90 (Botrtyis cinerea (Bc); [11]) | IC90 (Rhizoctonia solani (Rs); [12]) | IC90 (Septoria tritici (St); [13]) | IC90 (Diplodia maydis (Dm); [14]) | IC90 [1, 15] | IC90 [2, 16] | IC90 [3, 17] | IC90 [4, 18] | IC90 (Botrtyis cinerea (Bc); [19]) | IC90 (Rhizoctonia solani (Rs); [20]) | SMILES
≥ 50 µg/mL | 2 µg/mL (≈ 3.3 µM) | 2 µg/mL (≈ 3.3 µM) | 0.4 µg/mL (≈ 0.66 µM) | > 50 µg/mL | ≥ 0.4 µg/mL | 2 µg/mL (≈ 3.3 µM) | 0.4 µg/mL (≈ 0.66 µM) | – | – | – | – | – | – | – | – | CCOC(=O)c1sc2c(c1C)c(=O)n(C(C)(C)C(=O)N1CCCC1)c(=O)n2C[C@H](OCCO)c1cc(F)ccc1OC [Compound I-178]
> 50 µg/mL | > 50 µg/mL | 50 µg/mL (≈ 90.6 µM) | 2 µg/mL (≈ 3.63 µM) | > 50 µg/mL | > 50 µg/mL | 10 µg/mL (≈ 18.1 µM) | 2 µg/mL (≈ 3.63 µM) | – | – | – | – | – | – | – | – | CCOC(=O)c1sc2c(c1C)c(=O)n(C(C)(C)C(N)=O)c(=O)n2C[C@H](OCCO)c1cc(F)ccc1OC [Compound I-183]
– | – | – | – | – | – | – | – | ≥ 50 µg/mL | 10 µg/mL (≈ 16.4 µM) | ≥ 10 µg/mL | 2 µg/mL (≈ 3.28 µM) | > 50 µg/mL | ≥ 10 µg/mL | 10 µg/mL (≈ 16.4 µM) | 50 µg/mL (≈ 82 µM) | COc1ccccc1[C@H](Cn1c(=O)n(C(C)(C)C(=O)NC(C)C)c(=O)c2c(C)c(-n3cccn3)sc21)OC1CCOCC1 [Compound I-157]
– | – | – | – | – | – | – | – | > 50 µg/mL | 0.4 µg/mL (≈ 0.698 µM) | 0.4 µg/mL (≈ 0.698 µM) | 0.08 µg/mL (≈ 0.14 µM) | > 50 µg/mL | 0.08 µg/mL (≈ 0.14 µM) | 0.4 µg/mL (≈ 0.698 µM) | 0.4 µg/mL (≈ 0.698 µM) | COc1ccc(F)cc1[C@H](Cn1c(=O)n([C@H](C)C(=O)NC(C)C)c(=O)c2c(C)c(-n3nccn3)sc21)OC(C)C [Compound I-061]
– | – | – | – | – | – | – | – | > 50 µg/mL | 50 µg/mL (≈ 85.4 µM) | 50 µg/mL (≈ 85.4 µM) | 2 µg/mL (≈ 3.41 µM) | > 50 µg/mL | 10 µg/mL (≈ 17.1 µM) | 2 µg/mL (≈ 3.41 µM) | 50 µg/mL (≈ 85.4 µM) | COc1ccc(F)cc1[C@H](Cn1c(=O)n(C(C)(C)C(N)=O)c(=O)c2c(C)c(-n3cccn3)sc21)OC1CCOCC1 [Compound I-146]
> 50 µg/mL | 10 µg/mL (≈ 17.6 µM) | 2 µg/mL (≈ 3.52 µM) | 0.4 µg/mL (≈ 0.703 µM) | > 50 µg/mL | 2 µg/mL (≈ 3.52 µM) | 2 µg/mL (≈ 3.52 µM) | 2 µg/mL (≈ 3.52 µM) | – | – | – | – | – | – | – | – | CCNC(=O)[C@@H](C)n1c(=O)c2c(C)c(-n3cccn3)sc2n(C[C@H](OCCC#N)c2cc(F)ccc2OC)c1=O [Compound I-295]
> 50 µg/mL | 10 µg/mL (≈ 16.1 µM) | > 2 µg/mL | 0.4 µg/mL (≈ 0.645 µM) | > 50 µg/mL | ≥ 2 µg/mL | 2 µg/mL (≈ 3.23 µM) | 10 µg/mL (≈ 16.1 µM) | – | – | – | – | – | – | – | – | CCOC(=O)c1sc2c(c1C)c(=O)n(C(C)(C)C(=O)N1CCCC1)c(=O)n2C[C@H](OCCOC)c1cc(F)ccc1OC [Compound I-179]
> 50 µg/mL | 10 µg/mL (≈ 17 µM) | 50 µg/mL (≈ 84.9 µM) | 2 µg/mL (≈ 3.4 µM) | > 50 µg/mL | 50 µg/mL (≈ 84.9 µM) | 2 µg/mL (≈ 3.4 µM) | 10 µg/mL (≈ 17 µM) | – | – | – | – | – | – | – | – | COCCO[C@@H](Cn1c(=O)n([C@@H](C)C(=O)NC(C)C)c(=O)c2c(C)c(-n3nccn3)sc21)c1cc(F)ccc1OC [Compound I-172]
– | – | – | – | – | – | – | – | > 50 µg/mL | 0.08 µg/mL (≈ 0.137 µM) | 0.08 µg/mL (≈ 0.137 µM) | 0.08 µg/mL (≈ 0.137 µM) | ≥ 10 µg/mL | 0.08 µg/mL (≈ 0.137 µM) | 0.4 µg/mL (≈ 0.684 µM) | 0.4 µg/mL (≈ 0.684 µM) | COc1ccc(F)cc1[C@H](Cn1c(=O)n([C@@H](C)C(=O)N2CCCC2)c(=O)c2c(C)c(-n3nccn3)sc21)OC(C)C [Compound I-058]
